Measured values as given in patent US20220218725A1, “METHODS AND MATERIALS FOR TREATING CANCER” (Mayo Foundation for Medical Education and Research, priority 2019, published 2022).

Legend:
Format in all cases: cell-based
BT-474 cells = experiment: Cell viability, Annexin V/PI assay; settings: BT-474 (Breast cancer); 48 hours; KPT-330 0.1-1.0 μM, CS 1-3 mM, single agent or combination
Description: (§4) KPT-330 purchased from Selleckchem (cat no: S7252) was dissolved in DMSO while CS (Santa Cruz, Calif.S 2016-36-6), sodium salicylate (Sigma-Aldrich, cat no: S3007), acetyl salicylate (Sigma-Aldrich, cat no: CAS 50-78-2) was diluted in PBS. […] The concentration range of KPT-330 was 0.05-1.0 μM while CS was 1-3 mM were used for ex vivo treatment and incubation time ranged from 24 hours to 72 hours.

MCF7 cells = experiment: Cell viability, Annexin V/PI assay; settings: MCF7 (Breast cancer); 48 hours; KPT-330 0.1-1.0 μM, CS 1-3 mM, single agent or combination
Description: as §4

JeKo-1 cells = experiment: Cell viability, Annexin V/PI assay (also IC50 and combination index); settings: for % viability normalized for respective controls: JeKo-1 (MCL), 48 hours, KPT-330 0.1-1.0 μM, CS 1-3 mM, single agent or combination
Description: To assess apoptosis and cellular proliferation, all cell lines were treated with CRM 1 inhibitors (concentration ranging from 0.05-2 μM) and salicylates at concentrations ranging from (0.001-10 mM) for 48 hours before analysis was performed. DMSO was used to substitute the drug in controls.
After 48 hours incubation, cells were washed with Annexin buffer solution and stained with both propidium iodide (PI) and FITC-Annexin V (Life Technologies), and assayed on a BD Accuri flow cytometer (BD Biosciences). Apoptosis results were analyzed with BD CellQuest software. For cell cycle analysis, Jeko-1 cell line was intubated with CRM 1 inhibitors (concentrations ranging from […]) and salicylates (concentration at 3 mM) and Ly-1 cell line was intubated with CRM 1 inhibitors (concentrations ranging from 0.1-2.0 μM) and salicylates (concentration at 0.5-5 mM) for 24 and 48 hours and then fixed with 95% cold ethanol and kept at 4 C° for 24 h and subsequently underwent cell cycle analysis after PI staining and analysis was performed using BD FACS caliber flow cytometer (BD Biosciences) and FlowJo software (Tree Star).
(§1) Cell lines were purchased from the cell line repositories ATCC (Manassas, Va.) or DSMZ (Braunschweig, Germany). These included MCL cell lines: JeKo-1, Mino; TCL cell lines: Karpas-299, SR-786; DLBCL cell lines: OCI-Ly1 (LY-1), OCI-Ly3 (LY-3), OCI-Ly19 (LY-19), SU-DHL-6 (DHL-6); MM cell lines: RPMI, U266, OPM2, Xgl, KMS2; ALL cell lines: CRL-1783; non-small cell lung cancer: NCI-H460, A549, HCC827; small cell lung cancer: H1048; sarcoma: Fuji, SW872. Cell lines were cultured according to instruction.
(§2) KPT-330 purchased from Selleckchem (cat no: S7252) was dissolved in DMSO while CS (Santa Cruz, Calif.S 2016-36-6), sodium salicylate (Sigma-Aldrich, cat no: S3007), acetyl salicylate (Sigma-Aldrich, cat no: CAS 50-78-2) was diluted in PBS. Ketorolac (Sigma-Aldrich, cat no: 1356665), Bortezomib (Selleckchem, cat no: S1013), gemcitabine (Sigma-Aldrich, cat no: G6423), Leptomycin-B (Sigma-Aldrich, cat no: L2913-2X) and KPT-185 (Selleckchem, cat no: S7125) were dissolved in DMSO. The concentration range of KPT-330 was 0.05-1.0 μM while CS was 1-3 mM were used for ex vivo treatment and incubation time ranged from 24 hours to 72 hours. For the PARP inhibitor assay, olaparib 10 μM (SelleckChem, cat no: AZD2281 Ku-0059436) was used.
(§3) The viability assessment for cell lines and primary patients samples were conducted with the Annexin V/PI method.
Jeko-1 and OCI-Ly1 cell lines were used to assess the IC50. Keeping CS at 3 mM, KPT-330 was titrated. Relative IC50 was calculated as described elsewhere (see, e.g., Sebaugh et al., Pharmaceutical statistics 10:128-134 (2011)). The combination index was calculated as described elsewhere (see, e.g., Chou et al., Cancer Res 70:440-446 (2010)).

HCC827 cells = experiment: Cell viability, Annexin V/PI assay; settings: HCC827 (Non-small cell lung cancer); 48 hours; KPT-330 0.1-1.0 μM, CS 1-3 mM, single agent or combination
Description: as §1, §2, §3

H1048 cells = experiment: Cell viability, Annexin V/PI assay; settings: H1048 (Small-cell lung cancer); 48 hours; KPT-330 0.1-1.0 μM, CS 1-3 mM, single agent or combination
Description: as §1, §2, §3

KMS2 cells = experiment: Cell viability, Annexin V/PI assay; settings: KMS2 (MM); 48 hours; KPT-330 0.1-1.0 μM, CS 1-3 mM, single agent or combination
Description: as §1, §2, §3

H460 cells = experiment: Cell viability, Annexin V/PI assay; settings: H460 (Non-small cell lung cancer); 48 hours; KPT-330 0.1-1.0 μM, CS 1-3 mM, single agent or combination
Description: as §1, §2, §3

RPMI (MM cell line) = experiment: Cell viability, Annexin V/PI assay; settings: 48 hours, KPT-330 0.1-1.0 μM, CS 1-3 mM, single agent or combination
Description: as §1, §2, §3

U266 cells = experiment: Cell viability, Annexin V/PI assay; settings: U266 (MM); 48 hours; KPT-330 0.1-1.0 μM, CS 1-3 mM, single agent or combination
Description: as §1, §2, §3

Xg1 cells = experiment: Cell viability, Annexin V/PI assay; settings: Xg1 (MM); 48 hours; KPT-330 0.1-1.0 μM, CS 1-3 mM, single agent or combination
Description: as §1, §2, §3

SR-786 cells = experiment: Cell viability, Annexin V/PI assay; settings: SR-786 (TCL); 48 hours; KPT-330 0.1-1.0 μM, CS 1-3 mM, single agent or combination
Description: as §1, §2, §3

SW872 cells = experiment: Cell viability, Annexin V/PI assay; settings: SW872 (Sarcoma); 48 hours; KPT-330 0.1-1.0 μM, CS 1-3 mM, single agent or combination
Description: as §1, §2, §3

A549 cells = experiment: Cell viability, Annexin V/PI assay; settings: A549 (Non-small cell lung cancer); 48 hours; KPT-330 0.1-1.0 μM, CS 1-3 mM, single agent or combination
Description: as §1, §2, §3

Mino cells = experiment: Cell viability, Annexin V/PI assay; settings: Mino (MCL); 48 hours; KPT-330 0.1-1.0 μM, CS 1-3 mM, single agent or combination
Description: as §1, §2, §3

FuJi cells = experiment: Cell viability, Annexin V/PI assay; settings: FuJi (Sarcoma); 48 hours; KPT-330 0.1-1.0 μM, CS 1-3 mM, single agent or combination
Description: as §1, §2, §3

Karpas-299 cells = experiment: Cell viability, Annexin V/PI assay; settings: Karpas-299 (TCL); 48 hours; KPT-330 0.1-1.0 μM, CS 1-3 mM, single agent or combination
Description: as §1, §2, §3

SMILES | % viability normalized for respective controls (BT-474 cells) | % viability normalized for respective controls (MCF7 cells) | % viability normalized for respective controls (JeKo-1 cells) | % viability normalized for respective controls (HCC827 cells) | % viability normalized for respective controls (H1048 cells) | % viability normalized for respective controls (KMS2 cells) | % viability normalized for respective controls (H460 cells) | % viability normalized for respective controls (RPMI (MM cell line)) | % viability normalized for respective controls (U266 cells) | % viability normalized for respective controls (Xg1 cells) | % viability normalized for respective controls (SR-786 cells) | % viability normalized for respective controls (SW872 cells) | % viability normalized for respective controls (A549 cells) | % viability normalized for respective controls (Mino cells) | % viability normalized for respective controls (FuJi cells) | % viability normalized for respective controls (Karpas-299 cells) | IC50 (JeKo-1 cells; Homo sapiens, JeKo-1 (MCL cells), 72 hours, selinexor titrated alone or with CS kept at 3 mM)
C[N+](C)(C)CCO.O=C([O-])c1ccccc1O [CS, choline salicylate] | 110% | 87% | 93% | 90% | 92% | 83% | 105% | 85% | 93% | 95% | 100% | 88% | 94% | 86% | 85% | 80% | –
O=C(/C=C\n1cnc(-c2cc(C(F)(F)F)cc(C(F)(F)F)c2)n1)NNc1cnccn1 [KPT-330, (Z)-3-[3-[3,5-bis (trifluoromethyl)phenyl]-1,2,4-triazol-1-yl]-N′-pyrazin-2-ylprop-2-enehydrazide] | 73% | 98% | 95% | 78% | 81% | 79% | 93% | 87.5% | 75% | 76% | 91% | 82% | 101% | 89% | 93% | 88% | 1300 nM
